Test results from US20260078120A1, “SUBSTITUTED PYRIDOPYRIMIDINONES” (MIRATI THERAPEUTICS, INC., priority 2022, published 2026).

How the values were obtained:
[1] = test system: SKBR3 (PI3Kα wild type) cells; assay: CellTiter-Glo 2.0 luminescent cell viability assay, 72 hours, SKBR3 cells; format: cell-based; settings: Homo sapiens, SK-BR-3, 72 h, SKBR3 (PI3Kα wild type) cells, CellTiter-Glo, approximately 72 hours; read-out: SKBR3 (WT) Viability IC50
Summary of the method: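 Viability measured via CTG luminescence following roughly 72 hours of compound exposure at 37° C. Dosing used a 10 um starting concentration diluted 1:4 over 10 points; percent-of-vehicle data fitted with a variable-slope four-parameter model for IC50.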

[2] = test system: T47D (PI3Kα H1047R mutant) cells; assay: CellTiter-Glo 2.0 luminescent cell viability assay, 72 hours, T47D cells; format: cell-based; settings: Homo sapiens, T47D, 72 h, T47D (PI3Kα H1047R mutant) cells, CellTiter-Glo, approximately 72 hours; read-out: T47D (H1047R mutant) Viability IC50
Summary of the method: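 Cells seeded at 1000 per well overnight were dosed with a 10-concentration, 1:4 series starting at 10 µM and incubated ~72 h at 37° C. Viability was read by CellTiter-Glo 2.0 luminescence after 30 min at room temperature. IC50 came from four-parameter fits of percent vehicle control.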

| IC50 [1] [µM] | IC50 [2] [µM] | Compound |
| --- | --- | --- |
| > 10 | > 10 | Cc1cc(C(C)Nc2ccc(C(=O)O)cc2)c2nc(N3CCCCC3)cc(=O)n2c1 (stereo not drawn) [Example 11-388, 4-((1-(7-methyl-4-oxo-2-(piperidin-1-yl)-4H-pyrido [1,2-a]pyrimidin-9-yl)ethyl)amino)benzoic acid] |
| > 10 | 0.195 | Cc1cc([C@H](C)Nc2ccc(Cl)nc2C(=O)O)c2nc(N3CCCCC3)c(C)c(=O)n2c1 [Example 11-357, (S)-6-chloro-3-((1-(3,7-dimethyl-4-oxo-2-(piperidin-1-yl)-4H-pyrido[1,2-a]pyrimidin-9-yl)ethyl)amino)picolinic acid] |
| > 10 | 0.0985 | Cc1cc([C@@H](C)Nc2ccccc2C(=O)O)c2nc(N3CC4CC4(C(F)(F)F)C3)c(C)c(=O)n2c1 (stereo partly drawn) [Example 10-145, 2-(((1R)-1-(3,7-dimethyl-4-oxo-2-(1-(trifluoromethyl)-3-azabicyclo[3.1.0]hexan-3-yl)-4H-pyrido[1,2-a]pyrimidin-9-yl)ethyl)amino)benzoic acid] |
| > 10 | > 10 | Cc1cc(C(=O)NC2CCCCC2C(=O)O)c2nc(N3CCCCC3)c(C#N)c(=O)n2c1 (stereo not drawn) [Example 11-315, 2-(3-cyano-7-methyl-4-oxo-2-(piperidin-1-yl)-4H-pyrido[1,2-a]pyrimidine-9-carboxamido)cyclohexane-1-carboxylic acid] |
| > 10 | 9.62 | Cc1cc(C(C)Nc2ccccc2C(=O)O)c2nc(-c3ccc(F)cc3)cc(=O)n2c1 (stereo not drawn) [Example 11-391, 2-((1-(2-(4-fluorophenyl)-7-methyl-4-oxo-4H-pyrido[1,2-a]pyrimidin-9-yl)ethyl)amino)benzoic acid] |
| > 10 | > 10 | Cc1cc(N2CCC(C(=O)O)CC2)c2nc(N3CCCCC3)cc(=O)n2c1 [Example 11-347, 1-(7-methyl-4-oxo-2-(piperidin-1-yl)-4H-pyrido[1,2-a]pyrimidin-9-yl)piperidine-4-carboxylic acid] |
| > 10 | 3.71 | Cc1cc([C@H](C)Nc2ccccc2)c2nc(N3Cc4ccccc4C3)c(C#N)c(=O)n2c1 [Example 11-300, (S)-2-(isoindolin-2-yl)-7-methyl-4-oxo-9-(1-(phenylamino)ethyl)-4H-pyrido[1,2-a]pyrimidine-3-carbonitrile] |
| > 10 | 1.06 | Cc1cc(C(C)Nc2ccccc2C(=O)O)c2nc(-c3ccccc3)c(C)c(=O)n2c1 (stereo not drawn) [Example 11-403, 2-((1-(3,7-dimethyl-4-oxo-2-phenyl-4H-pyrido[1,2-a]pyrimidin-9-yl)ethyl)amino)benzoic acid] |
| > 10 | 8.38 | Cc1cc(C(C)Nc2ccccc2C(=O)O)c2nc(-c3cnn(C)c3)cc(=O)n2c1 (stereo not drawn) [Example 11-405, 2-((1-(7-methyl-2-(1-methyl-1H-pyrazol-4-yl)-4-oxo-4H-pyrido[1,2-a]pyrimidin-9-yl)ethyl)amino)benzoic acid] |
| > 10 | > 10 | COc1ccccc1-c1cc(=O)n2cc(C)cc(C(C)Nc3ccccc3C(=O)O)c2n1 (stereo not drawn) [Example 11-394, 2-((1-(2-(2-methoxyphenyl)-7-methyl-4-oxo-4H-pyrido[1,2-a]pyrimidin-9-yl)ethyl)amino)benzoic acid] |

The next lines start with the molecule.

| Compound | IC50 [1] [µM] | IC50 [2] [µM] |
| --- | --- | --- |
| Cc1cnn(C2CCN(c3nc4c([C@@H](C)Nc5ccccc5C(=O)O)cc(C)cn4c(=O)c3C)CC2)c1 [Example 10-16, (R)-2-((1-(3,7-dimethyl-2-(4-(4-methyl-1H-pyrazol-1-yl)piperidin-1-yl)-4-oxo-4H-pyrido[1,2-a]pyrimidin-9-yl)ethyl)amino)benzoic acid] | > 10 | 0.0373 |
| Cc1cc([C@@H](C)Nc2ccccc2C(=O)O)c2nc(N3CCN(c4ccncc4)CC3)c(C)c(=O)n2c1 [Example 11-441, (R)-2-((1-(3,7-dimethyl-4-oxo-2-(4-(pyridin-4-yl)piperazin-1-yl)-4H-pyrido[1,2-a]pyrimidin-9-yl)ethyl)amino)benzoic acid] | > 10 | 0.408 |
| Cc1cc([C@@H](C)Nc2ccccc2C(=O)O)c2nc(N3CCN(c4ccc(C(F)(F)F)cc4C#N)CC3C)c(C)c(=O)n2c1 (stereo partly drawn) [Example 11-81, 2-(((1R)-1-(2-(4-(2-cyano-4-(trifluoromethyl)phenyl)-2-methylpiperazin-1-yl)-3,7-dimethyl-4-oxo-4H-pyrido[1,2-a]pyrimidin-9-yl)ethyl)amino)benzoic acid] | > 10 | 0.579 |
| Cc1cc(C(C)Nc2ccccc2C(=O)O)c2nc(N3CCC3)cc(=O)n2c1 (stereo not drawn) [Example 11-407, 2-((1-(2-(azetidin-1-yl)-7-methyl-4-oxo-4H-pyrido[1,2-a]pyrimidin-9-yl)ethyl)amino)benzoic acid] | > 10 | > 10 |
| Cc1cc([C@@H](C)Nc2ccccc2C(=O)O)c2nc(N3CCN(c4cccc(C#N)c4)CC3)c(C)c(=O)n2c1 [Example 11-226, (R)-2-((1-(2-(4-(3-cyanophenyl)piperazin-1-yl)-3,7-dimethyl-4-oxo-4H-pyrido[1,2-a]pyrimidin-9-yl)ethyl)amino)benzoic acid] | > 10 | 0.282 |
| Cc1cc([C@@H](C)Nc2ccccc2C(=O)O)c2nc(N3CCN(c4ccc(C(F)(F)F)cc4C#N)C[C@@H]3C)c(C#N)c(=O)n2c1 [Example 11-77, 2-(((R)-1-(3-cyano-2-((S)-4-(2-cyano-4-(trifluoromethyl)phenyl)-2-methylpiperazin-1-yl)-7-methyl-4-oxo-4H-pyrido[1,2-a]pyrimidin-9-yl)ethyl)amino)benzoic acid] | > 10 | 0.552 |
| Cc1cc([C@@H](C)Nc2ccccc2C(=O)O)c2nc(O[C@H]3CCOC3)c(C)c(=O)n2c1 [Example 11-246, 2-(((R)-1-(3,7-dimethyl-4-oxo-2-(((S)-tetrahydrofuran-3-yl)oxy)-4H-pyrido[1,2-a]pyrimidin-9-yl)ethyl)amino)benzoic acid] | > 10 | 0.196 |
| Cc1cc([C@@H](C)Nc2ccccc2C(=O)O)c2nc(N3CCC(C(C)(C)C)n4nccc43)c(C)c(=O)n2c1 (stereo partly drawn) [Example 11-13, 2-(((1R)-1-(2-(7-(tert-butyl)-6,7-dihydropyrazolo[1,5-a]pyrimidin-4(5H)-yl)-3,7-dimethyl-4-oxo-4H-pyrido[1,2-a]pyrimidin-9-yl)ethyl)amino)benzoic acid] | > 10 | 0.324 |
| Cc1cc([C@@H](C)Nc2ccccc2C(=O)O)c2nc(N3CC4(CCN(c5ccc(C#N)cc5)CC4)C3)c(C#N)c(=O)n2c1 [Example 11-172, (R)-2-((1-(3-cyano-2-(7-(4-cyanophenyl)-2,7-diazaspiro[3.5]nonan-2-yl)-7-methyl-4-oxo-4H-pyrido[1,2-a]pyrimidin-9-yl)ethyl)amino)benzoic acid] | > 10 | 0.21 |
| Cc1cc([C@@H](C)Nc2ccccc2C(=O)O)c2nc(N3CCC(N4CCCCC4=O)CC3)c(C)c(=O)n2c1 [Example 10-3, (R)-2-((1-(3,7-dimethyl-4-oxo-2-(2-oxo-[1,4′-bipiperidin]-1′-yl)-4H-pyrido[1,2-a]pyrimidin-9-yl)ethyl)amino)benzoic acid] | > 10 | 0.00812 |
| Cc1cc([C@@H](C)Nc2ccccc2C(=O)O)c2nc(N3C4CC5CC(C4)CC3C5)c(C)c(=O)n2c1 [Example 11-29, (R)-2-((1-(2-(2-azaadamantan-2-yl)-3,7-dimethyl-4-oxo-4H-pyrido[1,2-a]pyrimidin-9-yl)ethyl)amino)benzoic acid] | > 10 | 0.244 |
| CC(Nc1ccccc1C(=O)O)c1cc(C#N)cn2c(=O)cc(N3CCC(F)(F)CC3)nc12 (stereo not drawn) [Example 11-419, 2-((1-(7-cyano-2-(4,4-difluoropiperidin-1-yl)-4-oxo-4H-pyrido[1,2-a]pyrimidin-9-yl)ethyl)amino)benzoic acid] | > 10 | > 10 |
| Cc1cc(C(C)Nc2ccccc2C(=O)O)c2nc(-c3ccn(C)n3)cc(=O)n2c1 (stereo not drawn) [Example 11-404, 2-((1-(7-methyl-2-(1-methyl-1H-pyrazol-3-yl)-4-oxo-4H-pyrido[1,2-a]pyrimidin-9-yl)ethyl)amino)benzoic acid] | > 10 | > 10 |
| Cc1cc([C@@H](C)Nc2ccccc2C(=O)O)c2nc(-c3cn(C)cn3)c(C)c(=O)n2c1 [Example 11-234, (R)-2-((1-(3,7-dimethyl-2-(1-methyl-1H-imidazol-4-yl)-4-oxo-4H-pyrido[1,2-a]pyrimidin-9-yl)ethyl)amino)benzoic acid] | > 10 | 0.999 |
| Cc1cc([C@@H](C)Nc2ccccc2C(=O)O)c2nc(N3CCN(c4ccc(C#N)cc4)CC3)c(C#N)c(=O)n2c1 [Example 11-272, (R)-2-((1-(3-cyano-2-(4-(4-cyanophenyl)piperazin-1-yl)-7-methyl-4-oxo-4H-pyrido[1,2-a]pyrimidin-9-yl)ethyl)amino)benzoic acid] | > 10 | 0.141 |
| Cc1cc(C(C)Nc2ccccc2C(=O)O)c2nc(-c3ccc(Cl)cc3)cc(=O)n2c1 (stereo not drawn) [Example 11-396, 2-((1-(2-(4-chlorophenyl)-7-methyl-4-oxo-4H-pyrido[1,2-a]pyrimidin-9-yl)ethyl)amino)benzoic acid] | > 10 | 4.38 |
| Cc1cc([C@@H](C)Nc2ccccc2C(=O)O)c2nc(N3C4CCC3CN(c3ccc(C#N)cc3)C4)c(C#N)c(=O)n2c1 [Example 11-182, 2-(((1R)-1-(3-cyano-2-(3-(4-cyanophenyl)-3,8-diazabicyclo[3.2.1]octan-8-yl)-7-methyl-4-oxo-4H-pyrido[1,2-a]pyrimidin-9-yl)ethyl)amino)benzoic acid] | > 10 | 0.239 |
